From ChEMBL document CHEMBL3301562, “MMV Box screening against Plasmodium falciparum protein kinases and aminoacyl tRNA synthetases”

Columns and labels:
Format in all cases: functional
[1] = target: T1, Cdk-related protein kinase 6 (Plasmodium falciparum, UniProt O77239); test: Final concentrations were 1.5 uM ATP, 5 mM MnCl2, and 15 ug/ml PK6 in a buffer of 100 mM Tris-HCl (pH 7.5). 50 ug/mL MBP was provided as the substrate; 10 uM staurosporine was used as a control inhibitor. Incubation time was 3 hours and 40 minutes.The catalytic activity of each kinase was considered proportional to ATP consumed, as determined from measurements of residual [ATP] with the luciferase-based reagent Kinase-Glo (Promega) following incubation. Luminescence (proportional to residual [ATP]) was measured on the plate readers FLx800 (BioTek Instruments, Winooski, VT, USA) and MicroBeta2.
T1 sequence (O77239 whole entry): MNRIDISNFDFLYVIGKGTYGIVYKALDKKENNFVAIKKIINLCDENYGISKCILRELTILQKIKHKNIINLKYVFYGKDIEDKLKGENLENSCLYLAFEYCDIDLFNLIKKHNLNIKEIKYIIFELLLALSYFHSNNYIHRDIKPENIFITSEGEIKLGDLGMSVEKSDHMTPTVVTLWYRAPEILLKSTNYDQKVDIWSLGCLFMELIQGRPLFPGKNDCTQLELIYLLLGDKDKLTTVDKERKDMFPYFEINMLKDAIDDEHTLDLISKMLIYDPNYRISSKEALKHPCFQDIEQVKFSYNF

[2] = target: T2, Putative uncharacterized protein pk7 (Plasmodium falciparum, UniProt O96214); test: Final concentrations were 1 uM ATP, 2 mM DTT, 20 mM MgCl2, 2 mM MnCl2, 0.01% BSA, and 6 ug/ml PK7, in a buffer of 20 mM Tris-HCl (pH 7.5). The enzyme itself was the only substrate present (since autophosphorylation occurs); 100 uM 1NA-PP1 was used as a control inhibitor. Incubation time was 3 hours.
T2 sequence (O96214 whole entry): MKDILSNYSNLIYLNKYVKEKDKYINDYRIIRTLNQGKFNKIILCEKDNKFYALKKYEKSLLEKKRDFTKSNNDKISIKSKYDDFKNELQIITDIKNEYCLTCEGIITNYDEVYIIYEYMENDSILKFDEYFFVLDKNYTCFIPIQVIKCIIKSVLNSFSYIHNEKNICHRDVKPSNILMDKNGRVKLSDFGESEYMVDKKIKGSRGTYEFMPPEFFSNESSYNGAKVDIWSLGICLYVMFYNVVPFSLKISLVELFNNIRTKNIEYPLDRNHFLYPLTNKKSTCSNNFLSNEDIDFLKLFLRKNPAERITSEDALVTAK

[3] = target: T3, Mitogen-activated protein kinase (Plasmodium falciparum, UniProt Q25917); test: Final concentrations were 1 uM ATP, 0.5 mM DTT, 1 mM MgCl2, 0.5 mg/mL BSA, and 10 ug/ml MAP2 in a buffer of 50 mM HEPES (pH 7.0). 0.5 mg/mL histone III-S served as the substrate (13); 100 uM AMP-PNP, an ATP analog, was used as a control inhibitor. Incubation time was 4 hours.
T3 sequence (Q25917 whole entry): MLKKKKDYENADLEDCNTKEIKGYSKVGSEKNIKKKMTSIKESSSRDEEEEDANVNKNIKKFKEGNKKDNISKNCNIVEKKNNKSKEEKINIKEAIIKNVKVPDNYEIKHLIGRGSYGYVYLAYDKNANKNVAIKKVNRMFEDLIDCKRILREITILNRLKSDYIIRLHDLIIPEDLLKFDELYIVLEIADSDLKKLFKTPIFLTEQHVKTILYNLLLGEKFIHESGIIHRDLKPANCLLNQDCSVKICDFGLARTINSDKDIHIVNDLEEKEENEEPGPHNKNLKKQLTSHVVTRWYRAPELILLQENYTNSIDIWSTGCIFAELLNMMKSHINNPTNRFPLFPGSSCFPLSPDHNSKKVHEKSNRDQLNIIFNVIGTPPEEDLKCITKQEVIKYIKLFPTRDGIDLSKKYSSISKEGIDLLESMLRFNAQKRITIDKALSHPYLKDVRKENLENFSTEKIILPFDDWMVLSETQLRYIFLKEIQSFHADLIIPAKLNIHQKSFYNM

[4] = target: Calcium-dependent protein kinase 1 (Plasmodium falciparum, UniProt P62344); test: MMV: CDPK1 Protein kinase inhibition assay using recombinant PfCDPK1, syntide 2 peptide substrate, ATP and KinaseGlo to measure % inhibition at 1 uM MMV box compound.
Chain of Calcium-dependent protein kinase 1 (P62344 whole entry): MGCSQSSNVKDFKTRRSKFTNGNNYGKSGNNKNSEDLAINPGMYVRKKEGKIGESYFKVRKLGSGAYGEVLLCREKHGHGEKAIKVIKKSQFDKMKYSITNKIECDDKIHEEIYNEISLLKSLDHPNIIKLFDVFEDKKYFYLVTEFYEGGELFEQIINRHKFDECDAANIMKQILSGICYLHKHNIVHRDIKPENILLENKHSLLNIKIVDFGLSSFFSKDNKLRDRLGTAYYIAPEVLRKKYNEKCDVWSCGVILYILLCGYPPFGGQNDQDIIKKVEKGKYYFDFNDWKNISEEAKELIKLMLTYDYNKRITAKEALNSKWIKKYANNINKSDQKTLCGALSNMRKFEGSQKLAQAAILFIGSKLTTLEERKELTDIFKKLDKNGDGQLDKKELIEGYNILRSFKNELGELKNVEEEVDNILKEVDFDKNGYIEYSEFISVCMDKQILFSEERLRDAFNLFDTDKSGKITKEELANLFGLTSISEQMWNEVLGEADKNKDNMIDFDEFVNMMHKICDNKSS

[5] = target: T4, Calcium-dependent protein kinase 4 (Plasmodium falciparum (isolate 3D7), UniProt Q8IBS5); test: MMV: CDPK4 Protein kinase inhibition assay using recombinant PfCDPK4, syntide2 peptide substrate, ATP and KinaseGlo to measure % inhibition at 1 uM MMV box compound.
T4 sequence (Q8IBS5 whole entry): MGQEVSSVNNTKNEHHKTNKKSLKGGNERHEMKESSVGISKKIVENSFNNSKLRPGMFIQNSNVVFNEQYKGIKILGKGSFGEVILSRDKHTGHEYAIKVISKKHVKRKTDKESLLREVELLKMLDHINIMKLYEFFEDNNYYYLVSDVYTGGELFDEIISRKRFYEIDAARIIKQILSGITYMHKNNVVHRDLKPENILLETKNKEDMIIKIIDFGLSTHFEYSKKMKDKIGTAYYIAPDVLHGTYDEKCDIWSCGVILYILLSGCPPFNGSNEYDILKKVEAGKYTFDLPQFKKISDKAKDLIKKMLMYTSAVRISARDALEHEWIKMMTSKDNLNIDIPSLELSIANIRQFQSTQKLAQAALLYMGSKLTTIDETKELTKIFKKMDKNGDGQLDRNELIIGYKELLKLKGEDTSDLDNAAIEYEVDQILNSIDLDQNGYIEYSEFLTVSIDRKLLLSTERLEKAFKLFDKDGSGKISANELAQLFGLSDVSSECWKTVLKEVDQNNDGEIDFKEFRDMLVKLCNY

Proline--tRNA ligase = target: T5, Proline--tRNA ligase (Plasmodium falciparum (isolate 3D7), UniProt Q8I5R7); test: MMV: ProRS recombinant Plasmodium falciparum Prolyl-tRNA-synthetase, assay with yeast tRNA, ATP, and proline and 3 uM MMV malaria box compound, assay read out with kinase glo as % inhibition.
T5 sequence (Q8I5R7 whole entry): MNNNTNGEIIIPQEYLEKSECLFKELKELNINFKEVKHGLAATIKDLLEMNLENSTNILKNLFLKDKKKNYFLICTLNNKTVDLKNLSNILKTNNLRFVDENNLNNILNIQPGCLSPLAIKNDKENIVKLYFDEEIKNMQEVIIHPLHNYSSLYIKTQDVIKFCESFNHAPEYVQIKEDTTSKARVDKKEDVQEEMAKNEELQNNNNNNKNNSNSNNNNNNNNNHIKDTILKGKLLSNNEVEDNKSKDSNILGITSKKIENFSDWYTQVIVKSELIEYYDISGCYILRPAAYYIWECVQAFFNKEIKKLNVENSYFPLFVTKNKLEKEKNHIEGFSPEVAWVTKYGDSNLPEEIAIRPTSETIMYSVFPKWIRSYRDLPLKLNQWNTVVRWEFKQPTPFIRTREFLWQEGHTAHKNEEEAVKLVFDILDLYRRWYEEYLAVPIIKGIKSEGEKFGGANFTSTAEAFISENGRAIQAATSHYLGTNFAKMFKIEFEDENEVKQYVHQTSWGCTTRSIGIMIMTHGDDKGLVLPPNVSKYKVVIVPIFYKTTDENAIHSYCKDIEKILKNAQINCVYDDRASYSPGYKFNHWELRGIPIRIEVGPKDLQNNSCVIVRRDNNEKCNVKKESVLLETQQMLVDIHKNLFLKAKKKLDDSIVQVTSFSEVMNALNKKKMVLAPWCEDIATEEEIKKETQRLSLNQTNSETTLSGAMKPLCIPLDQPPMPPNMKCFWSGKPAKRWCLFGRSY

Lysine--tRNA ligase = Lysine--tRNA ligase (Plasmodium falciparum (isolate 3D7), UniProt Q8IDJ8); test: MMV: KRS recombinant Plasmodium falciparum Lysyl-tRNA-synthetase, assay with yeast tRNA, ATP, and lysine and 3 uM MMV malaria box compound, assay read out with kinase glo as % inhibition.
Chain of Lysine--tRNA ligase (Q8IDJ8 whole entry): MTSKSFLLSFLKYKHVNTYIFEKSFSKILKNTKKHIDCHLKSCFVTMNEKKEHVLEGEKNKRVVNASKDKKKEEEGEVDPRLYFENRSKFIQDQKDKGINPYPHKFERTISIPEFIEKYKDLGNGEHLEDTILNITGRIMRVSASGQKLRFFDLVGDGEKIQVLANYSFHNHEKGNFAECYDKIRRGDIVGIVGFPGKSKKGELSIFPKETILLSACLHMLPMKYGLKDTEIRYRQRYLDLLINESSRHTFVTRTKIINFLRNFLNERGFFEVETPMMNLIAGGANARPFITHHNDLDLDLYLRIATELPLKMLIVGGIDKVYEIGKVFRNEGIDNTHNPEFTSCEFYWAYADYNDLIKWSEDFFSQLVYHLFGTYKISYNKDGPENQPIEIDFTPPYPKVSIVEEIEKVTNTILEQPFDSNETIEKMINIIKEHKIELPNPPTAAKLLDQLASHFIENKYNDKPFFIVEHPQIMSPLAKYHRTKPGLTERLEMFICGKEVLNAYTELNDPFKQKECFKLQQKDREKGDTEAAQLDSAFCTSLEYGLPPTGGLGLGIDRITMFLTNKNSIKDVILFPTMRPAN

SMILES	IC50 [1]	IC50 [2]	IC50 [3]	IC50 [4]	IC50 [5]	IC50 (Proline--tRNA ligase)	IC50 (Lysine--tRNA ligase)
Cc1sc(NC(=O)c2ccco2)c(C(c2cccnc2)N2CCC(Cc3ccccc3)CC2)c1C (configuration not stated)	> 1000 nM	> 1000 nM	> 1000 nM	> 1000 nM	> 1000 nM	> 2500 nM	> 2500 nM
O=C(NNc1cc(N2CCCC2)nc(N2CCCC2)n1)c1ccccc1	> 1000 nM	> 1000 nM	> 1000 nM	> 1000 nM	> 1000 nM	> 2500 nM	> 2500 nM
COC(=O)c1ccc(Cl)c2c1C1C=CCC1C(c1cccc3ccccc13)N2 (configuration not stated)	> 1000 nM	> 1000 nM	> 1000 nM	> 1000 nM	> 1000 nM	> 2500 nM	> 2500 nM
O=C(CCc1ccccc1)c1ccccc1OCC(O)CN1CCCCC1 (configuration not stated)	> 1000 nM	> 1000 nM	> 1000 nM	> 1000 nM	> 1000 nM	> 2500 nM	> 2500 nM
OC1=C2C(=Nc3ccccc3SC2c2ccccc2)c2ccccc21 (configuration not stated)	> 1000 nM	> 1000 nM	> 1000 nM	> 1000 nM	> 1000 nM	> 2500 nM	> 2500 nM
COc1cc(C(=O)Nc2ccc(-c3nc4ccccc4[nH]3)cc2)cc(OC)c1OC	> 1000 nM	> 1000 nM	> 1000 nM	> 1000 nM	> 1000 nM	> 2500 nM	> 2500 nM
COC(=O)c1ccc(C2C3=C(O)CC(c4ccc(F)cc4)CC3=Nc3ccccc3N2C(=O)c2ccccc2)cc1 (configuration not stated)	> 1000 nM	> 1000 nM	> 1000 nM	> 1000 nM	> 1000 nM	> 2500 nM	> 2500 nM
CCOc1ccc(CN2CCN(CC(O)COc3ccc(OCC(O)CN4CCN(Cc5ccc(OCC)cc5)CC4)cc3)CC2)cc1 (configuration not stated)	> 1000 nM	> 1000 nM	> 1000 nM	> 1000 nM	> 1000 nM	> 2500 nM	> 2500 nM
CCCCNc1nc(NC(C)(C)C)nc(NC(C)(C)C)n1	> 1000 nM	> 1000 nM	> 1000 nM	> 1000 nM	> 1000 nM	> 2500 nM	> 2500 nM
CC(=O)c1sc(NC(=O)Nc2ccc(C)cc2C)nc1C	> 1000 nM	> 1000 nM	> 1000 nM	> 1000 nM	> 1000 nM	> 2500 nM	> 2500 nM
Oc1ccc2ccccc2c1CNc1nc2ccccc2[nH]1	> 1000 nM	> 1000 nM	> 1000 nM	> 1000 nM	> 1000 nM	> 2500 nM	> 2500 nM
O=C(Nc1ccc(-c2nc3ccccc3[nH]2)cc1)c1ccc(Cl)c(Cl)c1	> 1000 nM	> 1000 nM	> 1000 nM	> 1000 nM	> 1000 nM	> 2500 nM	> 2500 nM
Cc1cc(N(C)C)nc(Nc2ccc(NC(=O)Nc3ccccc3)cc2)n1	> 1000 nM	> 1000 nM	> 1000 nM	> 1000 nM	> 1000 nM	> 2500 nM	> 2500 nM
COc1cc(C(=O)ON=C(N)Cc2cccc3ccccc23)cc(OC)c1OC	> 1000 nM	> 1000 nM	> 1000 nM	> 1000 nM	> 1000 nM	> 2500 nM	> 2500 nM
Oc1c(C(Nc2ccccn2)c2cccc(Oc3ccccc3)c2)ccc2cccnc12 (configuration not stated)	> 1000 nM	> 1000 nM	> 1000 nM	> 1000 nM	> 1000 nM	> 2500 nM	> 2500 nM
COc1cc(-c2nc(-c3ccccc3)c(-c3ccccc3)[nH]2)cc(OC)c1O	> 1000 nM	> 1000 nM	> 1000 nM	> 1000 nM	> 1000 nM	> 2500 nM	> 2500 nM
Cc1ccc(Nc2nc(N)c3ccccc3n2)cc1Cl	> 1000 nM	> 1000 nM	> 1000 nM	> 1000 nM	> 1000 nM	> 2500 nM	> 2500 nM
CCn1c2c(c(=N)c3c1CCC3)CCCC2	> 1000 nM	> 1000 nM	> 1000 nM	> 1000 nM	> 1000 nM	> 2500 nM	> 2500 nM
Cc1ccc2c(C)nc(Nc3nc(C)cc(-c4ccccc4)n3)nc2c1	> 1000 nM	> 1000 nM	> 1000 nM	> 1000 nM	> 1000 nM	> 2500 nM	> 2500 nM
CCOc1ccc(Nc2ccnc3cc(Cl)ccc23)cc1	> 1000 nM	> 1000 nM	> 1000 nM	> 1000 nM	> 1000 nM	> 2500 nM	> 2500 nM
Cc1ccc(C)c(-c2csc(Nc3ccc(C)c(C)c3)n2)c1	> 1000 nM	> 1000 nM	> 1000 nM	> 1000 nM	> 1000 nM	> 2500 nM	> 2500 nM
